Columns and labels:
Assay in all cases: relative viability (nuclei count vs DMSO), 5 days (fraction); higher = more cells survive
[1] = system: PC-3 [JPC-3]
Outline: (§1)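 Cells from lung cancer lines were seeded into 1536-well plates and, one day later, dosed by pin tool. Treatments were either a single drug or a fixed dose of an anchor drug with five library-drug doses (not always all listed) in √10 steps. After 5 days, nuclei were stained in a one-step fixation (final 0.05% Triton X-100, 1% formaldehyde, 1 ug/ml Hoechst) and counted on 4× images, and relative viability is the treated-to-vehicle nuclei ratio, as the median of duplicate plates.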

[2] = system: A-427
Outline: as §1

[3] = system: NCI-H1975
Outline: as §1

[4] = system: HCC-78
Outline: as §1

[5] = system: HOP-62
Outline: as §1

[6] = system: NCI-H1792
Outline: as §1

[7] = system: NCI-H647
Outline: as §1

[8] = system: NCI-H1915
Outline: as §1

[9] = system: SK-LU-1
Outline: as §1

[10] = system: NCI-H2228
Outline: as §1

[11] = system: NCI-H358
Outline: as §1

[12] = system: LXF-289
Outline: as §1

[13] = system: LC-2-ad
Outline: as §1

[14] = system: HCC-15
Outline: as §1

[15] = system: NCI-H2126
Outline: as §1

[16] = system: NCI-H2347
Outline: as §1

[17] = system: NCI-H1734
Outline: as §1

[18] = system: NCI-H1755
Outline: as §1

[19] = system: SW 1573
Outline: as §1

[20] = system: LOU-NH91
Outline: as §1

[21] = system: NCI-H460
Outline: as §1

[22] = system: RERF-LC-KJ
Outline: as §1

## Clc1ccc(Nc2nnc(Cc3ccncc3)c3ccccc23)cc1 [Vatalanib] + CS(=O)(=O)N1CCN(Cc2cc3nc(-c4cccc5[nH]ncc45)nc(N4CCOCC4)c3s2)CC1 [Pictilisib] (partner 1 µM)
[1]; first compound 0.04 µM
  relative viability: 0.796
[1]; first compound 0.1265 µM
  relative viability: 0.715
[1]; first compound 0.4 µM
  relative viability: 0.645
[1]; first compound 1.265 µM
  relative viability: 0.726
[1]; first compound 4 µM
  relative viability: 0.752
[2]; first compound 0.04 µM
  relative viability: 0.667
[2]; first compound 0.1265 µM
  relative viability: 0.671
[2]; first compound 0.4 µM
  relative viability: 0.736
[2]; first compound 1.265 µM
  relative viability: 0.624
[2]; first compound 4 µM
  relative viability: 0.677
[3]; first compound 0.04 µM
  relative viability: 0.277
[3]; first compound 0.1265 µM
  relative viability: 0.322
[3]; first compound 0.4 µM
  relative viability: 0.32
[3]; first compound 1.265 µM
  relative viability: 0.258
[3]; first compound 4 µM
  relative viability: 0.287
[4]; first compound 0.04 µM
  relative viability: 0.199
[4]; first compound 0.1265 µM
  relative viability: 0.172
[4]; first compound 0.4 µM
  relative viability: 0.183
[4]; first compound 4 µM
  relative viability: 0.196
[5]; first compound 0.04 µM
  relative viability: 0.758
[5]; first compound 0.4 µM
  relative viability: 0.632
[5]; first compound 1.265 µM
  relative viability: 0.702
[5]; first compound 4 µM
  relative viability: 0.713
[6]; first compound 0.04 µM
  relative viability: 0.279
[6]; first compound 0.1265 µM
  relative viability: 0.327
[6]; first compound 0.4 µM
  relative viability: 0.249
[6]; first compound 1.265 µM
  relative viability: 0.276
[6]; first compound 4 µM
  relative viability: 0.28
[7]; first compound 0.04 µM
  relative viability: 0.387
[7]; first compound 0.1265 µM
  relative viability: 0.42
[7]; first compound 1.265 µM
  relative viability: 0.385
[7]; first compound 4 µM
  relative viability: 0.4
[8]; first compound 0.04 µM
  relative viability: 1.12
[8]; first compound 0.1265 µM
  relative viability: 0.929
[8]; first compound 0.4 µM
  relative viability: 0.972
[8]; first compound 1.265 µM
  relative viability: 0.863
[8]; first compound 4 µM
  relative viability: 0.942
[9]; first compound 0.04 µM
  relative viability: 0.596
[9]; first compound 0.1265 µM
  relative viability: 0.581
[9]; first compound 0.4 µM
  relative viability: 0.523
[9]; first compound 1.265 µM
  relative viability: 0.535
[9]; first compound 4 µM
  relative viability: 0.527
[10]; first compound 0.04 µM
  relative viability: 0.313
[10]; first compound 0.1265 µM
  relative viability: 0.432
[10]; first compound 0.4 µM
  relative viability: 0.317
[10]; first compound 1.265 µM
  relative viability: 0.379
[10]; first compound 4 µM
  relative viability: 0.432
[11]; first compound 0.04 µM
  relative viability: 0.378
[11]; first compound 0.1265 µM
  relative viability: 0.361
[11]; first compound 0.4 µM
  relative viability: 0.397
[11]; first compound 1.265 µM
  relative viability: 0.311
[11]; first compound 4 µM
  relative viability: 0.353
[12]; first compound 0.04 µM
  relative viability: 0.894
[12]; first compound 0.1265 µM
  relative viability: 0.737
[12]; first compound 0.4 µM
  relative viability: 0.748
[12]; first compound 1.265 µM
  relative viability: 0.702
[12]; first compound 4 µM
  relative viability: 0.747
[13]; first compound 0.04 µM
  relative viability: 0.574
[13]; first compound 0.1265 µM
  relative viability: 0.551
[13]; first compound 0.4 µM
  relative viability: 0.559
[13]; first compound 1.265 µM
  relative viability: 0.509
[13]; first compound 4 µM
  relative viability: 0.645
[14]; first compound 0.04 µM
  relative viability: 0.788
[14]; first compound 0.1265 µM
  relative viability: 0.741
[14]; first compound 0.4 µM
  relative viability: 0.799
[14]; first compound 1.265 µM
  relative viability: 0.716
[14]; first compound 4 µM
  relative viability: 0.786
[15]; first compound 0.04 µM
  relative viability: 0.488
[15]; first compound 0.1265 µM
  relative viability: 0.512
[15]; first compound 0.4 µM
  relative viability: 0.524
[15]; first compound 1.265 µM
  relative viability: 0.47
[15]; first compound 4 µM
  relative viability: 0.494
[16]; first compound 0.04 µM
  relative viability: 0.709
[16]; first compound 0.1265 µM
  relative viability: 0.723
[16]; first compound 0.4 µM
  relative viability: 0.409
[16]; first compound 1.265 µM
  relative viability: 0.92
[16]; first compound 4 µM
  relative viability: 0.319
[17]; first compound 0.04 µM
  relative viability: 0.478
[17]; first compound 0.1265 µM
  relative viability: 0.471
[17]; first compound 0.4 µM
  relative viability: 0.503
[17]; first compound 1.265 µM
  relative viability: 0.45
[17]; first compound 4 µM
  relative viability: 0.465
[18]; first compound 0.04 µM
  relative viability: 0.405
[18]; first compound 0.1265 µM
  relative viability: 0.395
[18]; first compound 0.4 µM
  relative viability: 0.453
[18]; first compound 1.265 µM
  relative viability: 0.387
[18]; first compound 4 µM
  relative viability: 0.383
[19]; first compound 0.04 µM
  relative viability: 0.596
[19]; first compound 0.1265 µM
  relative viability: 0.525
[19]; first compound 0.4 µM
  relative viability: 0.544
[19]; first compound 1.265 µM
  relative viability: 0.408
[19]; first compound 4 µM
  relative viability: 0.556
[20]; first compound 0.04 µM
  relative viability: 0.512
[20]; first compound 0.1265 µM
  relative viability: 0.541
[20]; first compound 0.4 µM
  relative viability: 0.461
[20]; first compound 1.265 µM
  relative viability: 0.503
[20]; first compound 4 µM
  relative viability: 0.517
[21]; first compound 0.04 µM
  relative viability: 0.361
[21]; first compound 0.1265 µM
  relative viability: 0.356
[21]; first compound 0.4 µM
  relative viability: 0.378
[21]; first compound 1.265 µM
  relative viability: 0.352
[21]; first compound 4 µM
  relative viability: 0.312
[22]; first compound 0.04 µM
  relative viability: 0.486
[22]; first compound 0.1265 µM
  relative viability: 0.579
[22]; first compound 0.4 µM
  relative viability: 0.745
[22]; first compound 1.265 µM
  relative viability: 0.422
[22]; first compound 4 µM
  relative viability: 0.481

## C[C@@H]1CN(CC(=O)Nc2ccc3c(c2)Cc2cccc(-c4cc(=O)cc(N5CCOCC5)o4)c2S3)C[C@H](C)O1 + Cc1nc(NC(=O)N2CCC[C@H]2C(N)=O)sc1-c1ccnc(C(C)(C)C(F)(F)F)c1 [Alpelisib] (partner 2 µM)
[1]; first compound 0.04 µM
  relative viability: 1.02
[1]; first compound 0.1265 µM
  relative viability: 1
[1]; first compound 0.4 µM
  relative viability: 1
[1]; first compound 4 µM
  relative viability: 0.952
[2]; first compound 0.04 µM
  relative viability: 1.12
[2]; first compound 0.1265 µM
  relative viability: 1.08
[2]; first compound 0.4 µM
  relative viability: 1.07
[2]; first compound 4 µM
  relative viability: 1.07
[3]; first compound 0.04 µM
  relative viability: 0.666
[3]; first compound 0.1265 µM
  relative viability: 0.587
[3]; first compound 0.4 µM
  relative viability: 0.551
[3]; first compound 4 µM
  relative viability: 0.438
[4]; first compound 0.04 µM
  relative viability: 0.303
[4]; first compound 0.1265 µM
  relative viability: 0.3
[4]; first compound 0.4 µM
  relative viability: 0.278
[4]; first compound 4 µM
  relative viability: 0.33
[5]; first compound 0.04 µM
  relative viability: 1.08
[5]; first compound 0.1265 µM
  relative viability: 1.05
[5]; first compound 0.4 µM
  relative viability: 0.939
[5]; first compound 4 µM
  relative viability: 1.07
[6]; first compound 0.04 µM
  relative viability: 0.685
[6]; first compound 0.1265 µM
  relative viability: 0.677
[6]; first compound 0.4 µM
  relative viability: 0.707
[6]; first compound 4 µM
  relative viability: 0.665
[7]; first compound 0.04 µM
  relative viability: 1.26
[7]; first compound 0.1265 µM
  relative viability: 1.08
[7]; first compound 0.4 µM
  relative viability: 1.08
[7]; first compound 4 µM
  relative viability: 0.766
[8]; first compound 0.04 µM
  relative viability: 1.02
[8]; first compound 0.1265 µM
  relative viability: 1.08
[8]; first compound 0.4 µM
  relative viability: 1.1
[8]; first compound 4 µM
  relative viability: 1.04
[9]; first compound 0.04 µM
  relative viability: 1.21
[9]; first compound 0.1265 µM
  relative viability: 1.05
[9]; first compound 0.4 µM
  relative viability: 0.936
[9]; first compound 4 µM
  relative viability: 0.645
[10]; first compound 0.04 µM
  relative viability: 0.708
[10]; first compound 0.1265 µM
  relative viability: 0.707
[10]; first compound 0.4 µM
  relative viability: 0.754
[10]; first compound 4 µM
  relative viability: 0.485
[11]; first compound 0.04 µM
  relative viability: 1.12
[11]; first compound 0.1265 µM
  relative viability: 0.859
[11]; first compound 0.4 µM
  relative viability: 0.73
[11]; first compound 4 µM
  relative viability: 0.491
[12]; first compound 0.04 µM
  relative viability: 1.04
[12]; first compound 0.1265 µM
  relative viability: 1
[12]; first compound 0.4 µM
  relative viability: 0.996
[12]; first compound 4 µM
  relative viability: 1.02
[13]; first compound 0.04 µM
  relative viability: 1.02
[13]; first compound 0.1265 µM
  relative viability: 0.864
[13]; first compound 0.4 µM
  relative viability: 0.77
[13]; first compound 4 µM
  relative viability: 0.848
[14]; first compound 0.04 µM
  relative viability: 0.976
[14]; first compound 0.1265 µM
  relative viability: 0.881
[14]; first compound 0.4 µM
  relative viability: 0.826
[14]; first compound 4 µM
  relative viability: 0.71
[15]; first compound 0.04 µM
  relative viability: 0.807
[15]; first compound 0.1265 µM
  relative viability: 0.765
[15]; first compound 0.4 µM
  relative viability: 0.738
[15]; first compound 4 µM
  relative viability: 0.762
[16]; first compound 0.04 µM
  relative viability: 0.981
[16]; first compound 0.1265 µM
  relative viability: 1.09
[16]; first compound 0.4 µM
  relative viability: 1.08
[16]; first compound 4 µM
  relative viability: 0.979
[17]; first compound 0.04 µM
  relative viability: 0.759
[17]; first compound 0.1265 µM
  relative viability: 0.673
[17]; first compound 0.4 µM
  relative viability: 0.567
[17]; first compound 4 µM
  relative viability: 0.746
[18]; first compound 0.04 µM
  relative viability: 0.934
[18]; first compound 0.1265 µM
  relative viability: 0.88
[18]; first compound 0.4 µM
  relative viability: 0.845
[18]; first compound 4 µM
  relative viability: 0.863
[19]; first compound 0.04 µM
  relative viability: 0.867
[19]; first compound 0.1265 µM
  relative viability: 0.852
[19]; first compound 0.4 µM
  relative viability: 0.771
[19]; first compound 4 µM
  relative viability: 0.753
[20]; first compound 0.04 µM
  relative viability: 0.756
[20]; first compound 0.1265 µM
  relative viability: 0.72
[20]; first compound 0.4 µM
  relative viability: 0.692
[20]; first compound 4 µM
  relative viability: 0.689
[21]; first compound 0.04 µM
  relative viability: 0.517
[21]; first compound 0.1265 µM
  relative viability: 0.416
[21]; first compound 0.4 µM
  relative viability: 0.355
[21]; first compound 4 µM
  relative viability: 0.265
[22]; first compound 0.04 µM
  relative viability: 0.869
[22]; first compound 0.1265 µM
  relative viability: 0.764
[22]; first compound 0.4 µM
  relative viability: 0.774
[22]; first compound 4 µM
  relative viability: 0.792

— the supplement of paper PMC10307832
